Experimental data from patent US20240122985A1, “ANTIBODIES, COMBINATIONS COMPRISING ANTIBODIES, BIOMARKERS, USES & METHODS” (KYMAB LIMITED, priority 2016, published 2024).

System: peripheral blood and tissue T-cells
Test: Flow cytometry of T-cell subsets after HCT (Tscm, TN, TCM, TEM, Ki-67, OX40, Treg, cytokines)
Type: in vivo, Rhesus macaque
Experimental: Longitudinal peripheral blood samples were collected before and after haematopoietic stem cell transplant and at necropsy for flow cytometric analysis of lymphocyte subsets. Lung, liver, colon spleen and lymph node (axillary and inguinal) tissues were collected at necropsy and dissociated or enzymatically digested as appropriate for subsequent analysis of lymphocyte infiltrates by flow cytometry. Samples were analysed by multicolour flow cytometry using a LSRFortessa cell analyser (BD Biosciences) using the following T lymphocyte marker probes: CD3 (APC-Cy7 label; clone SP34-2, BD Biosciences), CD4 (BV786 label; clone L200, BD Biosciences), CD8 (BUV395 label; clone RPA-T 8, BD Bioscences), CD28 (PE-Cy7 label; clone CD28.2, eBioscience), CD95 (BV605 label; clone DX2, Biolegend). Proliferating cell populations were identified using Ki-67 (FITC label, Dako). CD4^+ or CD8^+T-cell subcompartments were labelled as follows: naïve T-cells (CD28^+/CD95^−), central memory T-cells (CD28^+/CD95^+), effector memory T-cells (CD28−/CD95^+).
Blood was collected into tubes with Sodium EDTA, and then red blood cells were lysed with lysis buffer containing ammonium chloride. Remaining leukocytes were washed with FACS buffer (PBS with 2% FBS) and stained with antibody cocktail (Table 7) for 30 minutes at 4° C. After staining, cells were washed and fixed in 1× BD Stabilising Fixative. Acquisition of flow data was performed on BD LSR Fortessa cytometer. Data were analysed using FloJo. T-cells were defined as CD3^+CD14/CD20-lymphocytes.
Peripheral blood mononuclear cells were isolated at different time points by Ficoll-Paque gradient and then were stained for cell surface markers (CD3, CD4, CD8) followed by fixation/permeabilization (using BD Cytofix/Cytoperm kit) and intracellular staining for Ki-67. Ki-67 expression in NHP peripheral blood CD4^+ (FIG. 8A) and CD8^+ (FIG. 8B) was measured. T-cells before (pre-HCT) and following allogeneic HCT in recipients being untreated (No Rx) or treated with OX40L antibody. Plots show Ki-67 expression in NHP peripheral blood bulk CD4^+ (FIG. 8C) and CD8^+ (FIG. 8D) T-cells before (pre-HCT) and following allogeneic HCT in recipients treated with rapamycin and with a combination of rapamycin and anti-OX40L antibody. Statistical analysis was performed using Holm-Sidak multiple-comparison post-test. *p<0.05.
Peripheral blood mononuclear cells were isolated prior (pre-HCT) and during terminal analysis following allogeneic HCT without immunoprophylaxis (No Rx), or treatment with rapamycin, or treatment with anti-OX40L antibody, or treatment with a combination of anti-OX40L antibody and rapamycin by Ficoll-Paque gradient and then were stained for cell surface markers (CD3, CD4, CD8, CD25, CD127 and OX40) followed by fixation/permeabilization (using BioLegend FoxP3 kit) and intracellular staining for FoxP3.
Animals were kept on the indicated immunoprophylaxis regimens. Time-points with n<3 were censored. Multiple t-test with Holm-Sidak correction was performed between the groups.
Whole blood cells were stained for CD3, CD4, CD8, CD14, CD20, CD45RA and CCR7 and then analysed by FACS. T-cells were defined as CD3^+CD14^−CD20^− lymphocytes and divided into CD4^+ and CD8^+ T-cell subsets. Memory T-cells (Tmem) were defined as CD45RA- and effector Tcells (Teff) as CD45RA+CCR7^− Tcells in both CD4 and CD8 gates. Combined populations of memory+effector CD4^+(FIG. 10A) and CD8^+(FIG. 10B) T-cells were longitudinally tracked before and at different time point following allogeneic HCT in recipients treated with anti-OX40L antibody, treated with rapamycin, or with a combination of rapamycin and anti-OX40L antibody. […]

Row | Molecule | frequency of OX40^+ Treg cells (FIGS. 8O and 8O-1) | relative and absolute numbers of CD4^+ TCM cells (after HCT, p<0.05) | CD4^+ T-cell production of IFNγ, TNFα or IL-2 (after transplant (FIG. 8N)) | ability of CD4^+ T-cells to express IL17A (after transplant (FIG. 8N)) | proliferation of CD8^+ T-cells (monotherapy (FIGS. 8F & 8G)) | sustained CD4^+ T-cell proliferation, as measured by Ki67 expression (monotherapy (FIGS. 8F & 8G)) | Treg to Tconv ratio (peripheral blood after HCT (FIG. 11B)) | Ki-67 expression on T-cells / T-cell proliferation (NHP peripheral blood after allogeneic HCT (FIG. 8)) | CD4^+ Tscm expansion (Rhesus macaque after allogeneic HCT (FIG. 4)) | T(eff+mem) cell population (after allogeneic HCT (FIG. 10)) | proportion of Tscm cells compared with the sirolimus and Tac/MTX treatment (peripheral blood, post-HCT (FIG. 6a, 6b))
1 | KY1005: antibody used for GVHD immunoprophylaxis in NHP, measured by antigen (OX40L) capture assay; not tied to 02D10 in this part | does not affect | significant reductions | without affecting | specifically reducing their ability to express IL17A | less effect | significant inhibitory impact | protected against the significant drop |  |  |  | 
2 | 2D10 IgG4PE: fully human anti-human OX40L monoclonal antibody, human IgG4-PE; VH Seq ID No:34, VL Seq ID No:48; 2D10-1 to -4 are stable pools (antibody, V domains shown, human IgG4-PE constant regions; 02D10 - VH Amino Acid Sequence; 02D10 - VL Amino Acid Sequence) VH: EVQLVESGGGLVQPGGSLRLSCAASGFTFSNYAMNWVRQAPGKGLEWVSTISGSGGATRYADSVKGRFTISRDNSRNTVYLQMNSLRVEDTAVFYCTKDRLIMATVRGPYYYGMDVWGQGTTVTVSS VL: DIQMTQSPSSLSASVGDRVTITCRASQSISSYLNWYQQKPGKAPNLLIYAASSLQSGVPSRFSGSGSETDFTLTISSLQPEDFATYYCQQSHSVSFTFGPGTKVDIK |  |  |  |  |  |  |  | reverses that expression | limited CD4^+ Tscm expansion | does not effectively suppress proliferation of CD8^+T(eff+mem) cells | sustained inhibition
